What was measured:
Hsp90 = experiment: Immunoblot of Hsp90 protein integrity in TLT cells; format: cell-based, murine; details: 5 µM plus 1 mM ascorbate, 4 h
Method: (§1) Cancer cells were incubated for 4 h with 5 µM menadione (K3) or 15 either in the absence or in the presence of 1 mM ascorbate (Asc). Ctl represents control untreated cells. * p < 0.05 as compared to control conditions. Cancer cells were incubated for 4 h in the absence and in the presence of compounds. Afterward, cells were washed twice with ice-cold PBS and then resuspended in RIPA lysis buffer supplemented with 1% protease inhibitor cocktail (Sigma–Aldrich, St. Louis, MO, USA) and 3% phosphatase inhibitor cocktail (Calbiochem, Darmstadt, Germany). Treatment of samples and electrophoresis conditions were conducted as previously reported. Mouse monoclonal primary antibodies against hsp90α/β C-terminus (F8), and against β-actin (clone AC-15), were purchased from Santa Cruz Biotechnology (Santa Cruz, CA, USA) and from Abcam (Cambridge, UK), respectively. Rabbit polyclonal antibodies against PARP were purchased from BD Biosciences (San Diego, CA, USA). Goat anti-rabbit antibody and rabbit anti-mouse polyclonal antibody were purchased respectively from Chemicon International (Temecula, CA, USA) and DakoCytomation (Glostrup, Denmark).

[1] = system: transplantable primary liver tumor (TLT); experiment: In vivo antitumor activity in TLT-bearing mice; details: TLT-bearing NMRI mice
Method: To go one-step further, we assessed the effect of the quinone derivative 15 in the TLT-bearing mice model. The dose of 15 used in this study (i.e., 10 mg/kg) was calculated according to doses of menadione, previously used by Verrax et al.. In mice treated with 15, the calculated mean survival time was 24.0 days as compared to 21.9 days in control untreated-animals, representing an increase in life span of 9.6 % (Figure 3). Although this ILS represents a marginal effect as compared to a minimum optimal effect […], a small trend can be inferred supporting a potential protective activity by 15, that requires to be further confirmed. […] To go further, studies are intended in the near future using a larger range of doses of 15.
Figure 3 Kaplan–Meier diagram in groups of TLT-bearing NMRI mice receiving intraperitoneal (i.p.) saline (control untreated animals). Compound 15 was also i.p. administered as 10 mg/kg body weight, 24 h after i.p. transplantation of TLT cells.
Young adult male NMRI mice (25–30 g) were obtained from Janvier Labs (Saint-Berthevin, France). After their placement at the University Animal Facilities, animals were randomized according to their body weight. They were housed in groups of five mice per cage (40 × 25 × 15 cm^3) in a constant temperature environment (22 °C) with alternating 12 h day/night cycles receiving standard food (UAR, Villemoisson-sur-Orge, France) and tap water ad libitum.
Taper et al. first observed the transplantable primary liver tumor (TLT) in 1966 in a two-month old female Swiss Webster mouse. […] Fritzler et al. further characterized the ultrastructure of TLT hepatoma ascites cells. Regarding our experimental conditions, the TLT tumor was maintained by weekly intraperitoneal (i.p.) transplantation (10^4 cells/mice). […] Then, mice mortality was daily recorded. […]
The antitumor activity was calculated according to Geran et al. using the mean survival time (m.s.t.) at day 30 and the increase in life span (ILS) calculated as ILS = [([…]) − 1] × 100. […]

T24 (bladder) cells = system: T24 (bladder) cells; set-up: method as in doi:10.1016/j.tetlet.2015.07.034; details: MTT, data from Valderrama et al. ref 16, read-out: IC50 ± SEM T24; cited from earlier work
MCF-7 (breast) cells = system: MCF-7 (breast) cells; set-up: method as in doi:10.1016/j.tetlet.2015.07.034; details: MTT, data from Valderrama et al. ref 16, read-out: IC50 ± SEM MCF-7; cited from earlier work
[2] = system: poly(ADPribose)polymerase (PARP); experiment: Immunoblot of PARP protein integrity in T24 cells; format: cell-based, human; details: 5 µM, 4 h, regardless of the presence of ascorbate (1 mM)
Method: Figure 1 Effects of selected quinones of Hsp90 (A) and poly(ADPribose)polymerase (PARP) (B) protein integrity in T24 cells. […] Ctl represents control untreated cells. * p < 0.05 as compared to control conditions. […] This was the case regardless of the presence of ascorbate (1 mM). The obtained results make a potential role of apoptosis unlikely to be the underlying mechanism of cell impairment induced by quinones, including menadione. Indeed, PARP is a substrate of caspase-3, therefore, when an apoptosis process is triggered, it is expected that PARP protein will be cleaved yielding a second protein band also recognized by the anti-PARP antibody. Cancer cells were incubated for 4 h in the absence and in the presence of compounds. Afterward, cells were washed twice with ice-cold PBS and then resuspended in RIPA lysis buffer supplemented with 1% protease inhibitor cocktail (Sigma–Aldrich, St. Louis, MO, USA) and 3% phosphatase inhibitor cocktail (Calbiochem, Darmstadt, Germany). Treatment of samples and electrophoresis conditions were conducted as previously reported. Mouse monoclonal primary antibodies against hsp90α/β C-terminus (F8), and against β-actin (clone AC-15), were purchased from Santa Cruz Biotechnology (Santa Cruz, CA, USA) and from Abcam (Cambridge, UK), respectively. Rabbit polyclonal antibodies against PARP were purchased from BD Biosciences (San Diego, CA, USA). […]

DU-145 (prostate) cells = system: DU-145 (prostate) cells; set-up: method as in doi:10.1016/j.tetlet.2015.07.034; details: read-out: IC50 ± SEM DU-145, MTT, data from Valderrama et al. ref 16; cited from earlier work
PARP = experiment: Immunoblot of PARP protein integrity in TLT cells; format: cell-based, murine; details: 5 µM plus 1 mM ascorbate, 4 h
Method: as §1

Question: Which Hsp90 protein cleavage (Hsp90) does the source give for `Cc1ccc2c(c1)SC1=NC3=C(C(=O)c4ccccc4C3=O)C(C)(O)N12` (stereo not drawn) [Compound 15] here?
Answer: The Hsp90 protein cleavage was “oxidative cleavage of Hsp90”.

Question: What about the “mean survival time (m.s.t.)” value ([1]; 10 mg/kg i.p. single dose 24 h after i.p. transplantation, control 21.9 days) of the same compound?
Answer: Its value is 24.0 days.

Question: What about the “increase in life span (ILS)” value ([1]; 10 mg/kg i.p. single dose, vs control untreated animals) of the same compound?
Answer: Its value is 9.6%.

Question: What about the “mean of individual mouse survival” value ([1]; 10 mg/kg i.p., control 21.2 ± 1.6 days, t-test p = 0.262, no significant difference) of the same compound?
Answer: Its value is 22.8 ± 6.1 days.

Question: And the IC50 (T24 (bladder) cells)?
Answer: Its IC50 is 0.22 ± 0.06 µM.

Question: And the IC50 (MCF-7 (breast) cells)?
Answer: Its IC50 is 2.98 ± 0.52 µM.

Question: And the PARP cleavage [2]?
Answer: The PARP cleavage was “no effect on PARP protein integrity”.

Question: And the IC50 (DU-145 (prostate) cells)?
Answer: Its IC50 is 0.11 ± 0.03 µM.

Question: And the PARP degradation (PARP)?
Answer: The PARP degradation was “not PARP degradation”.

Source: article PMC7071032, “In Vitro Inhibition of Hsp90 Protein by Benzothiazoloquinazolinequinones Is Enhanced in The Presence of Ascorbate. A Preliminary In Vivo Antiproliferative Study” (Molecules, 2020)
